Laboratory results published in ChEMBL document CHEMBL1275326, “Synthesis and identification of a new class of antileukemic agents containing 2-(arylcarboxamide)-(S)-6-amino-4,5,6,7-tetrahydrobenzo[d]thiazole” (Eur J Med Chem, 2010).
Active and inactive are the calls of the source. The calls are words filed in the database; no cut-off is given here.

Columns and labels:
CCRF-CEM [1] = assay: Cytotoxicity against human CEM cells after 48 to 72 hrs by MTT assay; type: functional, cell-based
K562 [2] = assay: Cytotoxicity against human K562 cells after 48 to 72 hrs by MTT assay; type: functional, cell-based
K562 [3] = assay: Cytotoxicity against human K562 cells after 24 hrs by LDH release assay; type: functional, cell-based
K562 [4] = assay: Cell cycle arrest in human K562 cells assessed as accumulation at G2/M phase at 10 uM after 48 hrs using propidium iodide staining by FACS analysis; type: functional, cell-based
K562 [5] = assay: Cell cycle arrest in human K562 cells assessed as accumulation at G1 phase at 10 uM after 48 hrs using propidium iodide staining by FACS analysis; type: functional, cell-based
K562 [6] = assay: Cell cycle arrest in human K562 cells assessed as accumulation at S phase at 10 uM after 48 hrs using propidium iodide staining by FACS analysis; type: functional, cell-based
K562 [7] = assay: Cell cycle arrest in human K562 cells assessed as accumulation at G0/G1 phase at 10 uM after 48 hrs using propidium iodide staining by FACS analysis; type: functional, cell-based
[8] = Cytotoxicity against human HEK293T cells at 1 to 5 uM after 48 to 72 hrs by MTT assay; type: cell-based; settings: hek-293t
K562 [9] = assay: Cytotoxicity against human K562 cells at 10 to 100 uM by MTT assay; type: functional, cell-based; settings: TDE = time-dependent effect
K562 [10] = assay: Cytotoxicity against human K562 cells at 10 to 100 uM after 24 hrs by trypan blue exclusion assay; type: functional, cell-based
CCRF-CEM [11] = assay: Cytotoxicity against human CEM cells at 10 to 100 uM by MTT assay; type: functional, cell-based; settings: TDE = time-dependent effect

Compound	IC50 (CCRF-CEM [1]) [µM]	IC50 (K562 [2]) [µM]	further results
COc1cccc(C(=O)Nc2nc3c(s2)C[C@@H](N)CC3)c1	13.8	17.9	
N[C@H]1CCc2nc(NC(=O)c3ccc(Cl)cc3Cl)sc2C1	8.72	7.72	
CC(C)(C)c1ccc(C(=O)Nc2nc3c(s2)C[C@@H](N)CC3)cc1.Cl	4.52	4.52	Activity (CCRF-CEM [1]): Dose-dependent effect; Activity (K562 [3]): Dose-dependent effect; Activity (K562 [4]): inactive; Activity (K562 [5]): inactive; Activity (K562 [2]): Dose-dependent effect; Activity (K562 [6]): inactive; Activity (K562 [7]): inactive; Activity [8]: Non-toxic; Activity (K562 [9]): tde; Activity (K562 [10]): Active; Activity (CCRF-CEM [11]): tde
N[C@H]1CCc2nc(NC(=O)c3c(F)cccc3F)sc2C1	81.2	> 100	
N[C@H]1CCc2nc(NC(=O)c3cc([N+](=O)[O-])cc([N+](=O)[O-])c3)sc2C1	9.02	8.16	
N[C@H]1CCc2nc(NC(=O)c3cccc(Br)c3)sc2C1	22.8	21	
N[C@H]1CCc2nc(NC(=O)c3ccccc3)sc2C1	61.4	65.7	
N[C@H]1CCc2nc(NC(=O)c3ccccc3F)sc2C1	56.6	57.2	
